Results as given in patent US20140243335A1, “SUBSTITUTED HYDOXAMIC ACIDS AND USES THEREOF” (Millennium Pharmaceuticals, Inc., priority 2010, published 2014).
Counter-ions that a name gives are not always drawn.

Molecular target: T1, purified human HDAC6 (Homo sapiens, UniProt Q9UBN7)
T1 construct: purchased BPS Bioscience 5006
T1 sequence (Q9UBN7 1-1215): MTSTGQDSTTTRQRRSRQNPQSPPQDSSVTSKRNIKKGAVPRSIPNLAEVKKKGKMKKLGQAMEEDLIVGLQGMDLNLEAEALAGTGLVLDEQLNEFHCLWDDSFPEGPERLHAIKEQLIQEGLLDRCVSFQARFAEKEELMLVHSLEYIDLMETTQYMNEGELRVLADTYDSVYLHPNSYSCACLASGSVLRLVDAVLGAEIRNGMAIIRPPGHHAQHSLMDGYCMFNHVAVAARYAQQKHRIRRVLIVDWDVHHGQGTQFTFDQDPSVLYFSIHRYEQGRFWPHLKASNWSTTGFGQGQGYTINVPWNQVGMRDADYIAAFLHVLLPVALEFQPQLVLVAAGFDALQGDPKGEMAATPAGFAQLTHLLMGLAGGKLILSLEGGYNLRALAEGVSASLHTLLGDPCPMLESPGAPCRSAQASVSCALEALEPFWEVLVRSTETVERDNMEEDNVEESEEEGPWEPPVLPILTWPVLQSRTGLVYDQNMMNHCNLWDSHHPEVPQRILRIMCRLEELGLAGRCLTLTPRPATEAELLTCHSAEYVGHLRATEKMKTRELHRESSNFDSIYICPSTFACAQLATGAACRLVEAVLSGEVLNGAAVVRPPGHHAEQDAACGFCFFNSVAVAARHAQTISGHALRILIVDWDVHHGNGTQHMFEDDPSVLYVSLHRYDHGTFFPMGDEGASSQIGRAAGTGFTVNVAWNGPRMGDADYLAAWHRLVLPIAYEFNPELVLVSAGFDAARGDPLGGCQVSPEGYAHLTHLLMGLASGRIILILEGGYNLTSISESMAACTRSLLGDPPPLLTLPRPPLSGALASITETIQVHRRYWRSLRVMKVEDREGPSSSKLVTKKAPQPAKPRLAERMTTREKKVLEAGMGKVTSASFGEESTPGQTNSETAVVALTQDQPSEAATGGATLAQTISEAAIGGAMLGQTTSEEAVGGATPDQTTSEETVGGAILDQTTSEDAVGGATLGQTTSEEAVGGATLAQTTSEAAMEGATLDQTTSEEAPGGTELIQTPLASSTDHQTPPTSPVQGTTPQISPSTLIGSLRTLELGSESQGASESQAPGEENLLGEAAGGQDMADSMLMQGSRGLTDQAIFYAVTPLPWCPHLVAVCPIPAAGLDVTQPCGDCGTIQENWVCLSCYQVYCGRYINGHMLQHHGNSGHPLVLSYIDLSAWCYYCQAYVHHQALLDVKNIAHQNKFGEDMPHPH
Assay: HDAC6 Enzyme Assay
Format: biochemical
Conditions: HDAC6 inhibition at a compound concentration of 0.412 μM; read-out: Percent Inhibition at 0.412 μM

Q: With `CN(C)CCOc1cccc(C2CCc3ccc(C(=O)NO)cc3C2)c1` (centres unmarked) [Compound I-194, 7-{3-[2-(dimethylamino)ethoxy]phenyl}-N-hydroxy-5,6,7,8-tetrahydronaphthalene-2-carboxamide] as the compound, how does the inhibition at 0.412 µM read?
A: The inhibition at 0.412 µM was 86%.

Q: Which inhibition at 0.412 µM does the source give for `O=C(NO)c1ccc2c(c1)CCC(c1ccncc1)C2` (centres unmarked) [Compound I-99, N-hydroxy-6-pyridin-4-yl-5,6,7,8-tetrahydronaphthalene-2-carboxamide] here?
A: The inhibition at 0.412 µM was 77%.

Q: `O=C(NO)c1ccc2c(c1)CCC(Oc1ccncc1)C2` (centres unmarked) [Compound I-108, N-hydroxy-6-(pyridin-4-yloxy)-5,6,7,8-tetrahydronaphthalene-2-carboxamide] was tested. Which inhibition at 0.412 µM did it give?
A: Its inhibition at 0.412 µM is 95%.

Q: `CC(C)(C)C(=O)N1C2CCC1c1cc(C(=O)NO)ccc12` (centres unmarked) [Compound I-201, 9-(2,2-dimethylpropanoyl)-N-hydroxy-1,2,3,4-tetrahydro-1,4-epiminonaphthalene-6-carboxamide] was tested. Which inhibition at 0.412 µM did it give?
A: The inhibition at 0.412 µM was 29%.

Q: With `CN(C)C1CCc2ccc(C(=O)NO)cc2C1` (centres unmarked) [Compound I-80, 7-(dimethylamino)-N-hydroxy-5,6,7,8-tetrahydronaphthalene-2-carboxamide] as the compound, how does the inhibition at 0.412 µM read?
A: Its inhibition at 0.412 µM is 43%.

Q: How did the inhibition at 0.412 µM turn out when `O=C(NO)c1ccc2c(c1)CCC[C@@H]2NC(=O)c1cn2cc(Cl)ccc2n1` [Compound I-70, 6-chloro-N-{(1S)-6-[(hydroxyamino)carbonyl]-1,2,3,4-tetrahydronaphthalen-1-yl}imidazo[1,2-a]pyridine-2-carboxamide] was run?
A: The inhibition at 0.412 µM was 63%.

Q: Which inhibition at 0.412 µM does the source give for `CC(C)(C)C(=O)NC1CCCc2cc(C(=O)NO)ccc21` (centres unmarked) [Compound I-6, 5-[(2,2-dimethylpropanoyl)amino]-N-hydroxy-5,6,7,8-tetrahydronaphthalene-2-carboxamide] here?
A: Its inhibition at 0.412 µM is 18%.

Q: For `O=C(NO)c1ccc2c(c1)CCC(CCc1cccc(F)c1)C2` (centres unmarked) [Compound I-103, 6-[2-(3-fluorophenyl)ethyl]-N-hydroxy-5,6,7,8-tetrahydronaphthalene-2-carboxamide], which inhibition at 0.412 µM is on record?
A: Its inhibition at 0.412 µM is 63%.

Q: How did the inhibition at 0.412 µM turn out when `COc1cccc(C(=O)NC2CCc3cc(C(=O)NO)ccc3C2)c1` (centres unmarked) [Compound I-112, N-hydroxy-6-[(3-methoxybenzoyl)amino]-5,6,7,8-tetrahydronaphthalene-2-carboxamide] was run?
A: The inhibition at 0.412 µM was 87%.

Q: With `Cn1c(C(=O)N[C@@H]2CCCc3cc(C(=O)NO)ccc32)cc2ccccc21` [Compound I-64, N-{(1R)-6-[(hydroxyamino)carbonyl]-1,2,3,4-tetrahydronaphthalen-1-yl}-1-methyl-1H-indole-2-carboxamide] as the compound, how does the inhibition at 0.412 µM read?
A: The inhibition at 0.412 µM was 18%.

Q: Which inhibition at 0.412 µM does the source give for `O=C(NO)c1ccc2c(c1)CC(NCc1ccc(Cl)cc1)CC2` (centres unmarked) [Compound I-76, 7-[(4-chlorobenzyl)amino]-N-hydroxy-5,6,7,8-tetrahydronaphthalene-2-carboxamide] here?
A: The inhibition at 0.412 µM was 80%.

Q: How did the inhibition at 0.412 µM turn out when `O=C(NO)c1ccc2c(c1)CC(NCc1ccncc1)CC2` (centres unmarked) [Compound I-85, N-hydroxy-7-[(pyridin-4-ylmethyl)amino]-5,6,7,8-tetrahydronaphthalene-2-carboxamide] was run?
A: The inhibition at 0.412 µM was 75%.

Q: Which inhibition at 0.412 µM does the source give for `O=C(NO)c1ccc2c(c1)CC(Oc1ccccc1)CC2` (centres unmarked) [Compound I-87, N-hydroxy-7-phenoxy-5,6,7,8-tetrahydronaphthalene-2-carboxamide] here?
A: Its inhibition at 0.412 µM is 92%.

Q: How did the inhibition at 0.412 µM turn out when `O=C(NO)c1ccc2c(c1)CCC(Oc1ccnc(Nc3ccc(Cl)cc3)c1)C2` (centres unmarked) [Compound I-228, 6-({2-[(4-chlorophenyl)amino]pyridin-4-yl}oxy)-N-hydroxy-5,6,7,8-tetrahydronaphthalene-2-carboxamide] was run?
A: Its inhibition at 0.412 µM is 90%.

Q: How did the inhibition at 0.412 µM turn out when `O=C(NO)c1ccc2c(c1)CCCC2NC(=O)c1cc2ccccc2s1` (centres unmarked) [Compound I-24, N-{6-[(hydroxyamino)carbonyl]-1,2,3,4-tetrahydronaphthalen-1-yl}-1-benzothiophene-2-carboxamide] was run?
A: The inhibition at 0.412 µM was 46%.

Q: With `CC(C)(C)OC(=O)N1CCC(C(=O)Nc2cc(OC3CCc4cc(C(=O)NO)ccc4C3)ccn2)CC1` (centres unmarked) [Compound I-224, tert-butyl 4-({[4-({6-[(hydroxyamino)carbonyl]-1,2,3,4-tetrahydronaphthalen-2-yl}oxy)pyridin-2-yl]amino}carbonyl)piperidine-1-carboxylate] as the compound, how does the inhibition at 0.412 µM read?
A: The inhibition at 0.412 µM was 94%.

Q: How did the inhibition at 0.412 µM turn out when `COc1ccccc1C1CCc2cc(C(=O)NO)ccc2C1` (centres unmarked) [Compound I-104, N-hydroxy-6-(2-methoxyphenyl)-5,6,7,8-tetrahydronaphthalene-2-carboxamide] was run?
A: The inhibition at 0.412 µM was 56%.

Q: For `O=C(NO)c1ccc2c(c1)CCCC2NC(=O)c1cccc(C(F)(F)F)c1` (centres unmarked) [Compound I-8, N-hydroxy-5-{[3-(trifluoromethyl)benzoyl]amino}-5,6,7,8-tetrahydronaphthalene-2-carboxamide], which inhibition at 0.412 µM is on record?
A: Its inhibition at 0.412 µM is 33%.

Q: With `CC(C)(Oc1ccccc1Cl)C(=O)NC1CCCc2cc(C(=O)NO)ccc21` (centres unmarked) [Compound I-14, 5-{[2-(2-chlorophenoxy)-2-methylpropanoyl]amino}-N-hydroxy-5,6,7,8-tetrahydronaphthalene-2-carboxamide] as the compound, how does the inhibition at 0.412 µM read?
A: The inhibition at 0.412 µM was 79%.

Q: Which inhibition at 0.412 µM does the source give for `O=C(NO)c1ccc2c(c1)CC(C1CCNCC1)CC2` (centres unmarked) [Compound I-212, N-hydroxy-7-piperidin-4-yl-5,6,7,8-tetrahydronaphthalene-2-carboxamide. HCl] here?
A: The inhibition at 0.412 µM was 72%.

Q: With `COc1ccc(C2CCc3cc(C(=O)NO)ccc3C2)cc1` (centres unmarked) [Compound I-105, N-hydroxy-6-(4-methoxyphenyl)-5,6,7,8-tetrahydronaphthalene-2-carboxamide] as the compound, how does the inhibition at 0.412 µM read?
A: Its inhibition at 0.412 µM is 43%.

Q: With `Cc1oc(S(=O)(=O)N2CCCCC2)cc1C(=O)NC1CCCc2cc(C(=O)NO)ccc21` (centres unmarked) [Compound I-37, N-{6-[(hydroxyamino)carbonyl]-1,2,3,4-tetrahydronaphthalen-1-yl}-2-methyl-5-(piperidin-1-ylsulfonyl)-3-furamide] as the compound, how does the inhibition at 0.412 µM read?
A: The inhibition at 0.412 µM was 36%.

Q: `O=C(NO)c1ccc2c(c1)CC(CCc1ccccc1)CC2` (centres unmarked) [Compound I-93, N-hydroxy-7-(2-phenylethyl)-5,6,7,8-tetrahydronaphthalene-2-carboxamide] was tested. Which inhibition at 0.412 µM did it give?
A: Its inhibition at 0.412 µM is 74%.

Q: `O=C(NO)c1ccc2c(c1)CCCC2NC(=O)C1CCCCC1` (centres unmarked) [Compound I-17, 5-[(cyclohexylcarbonyl)amino]-N-hydroxy-5,6,7,8-tetrahydronaphthalene-2-carboxamide] was tested. Which inhibition at 0.412 µM did it give?
A: Its inhibition at 0.412 µM is 19%.

Q: Which inhibition at 0.412 µM does the source give for `COc1cccc(C2CCc3ccc(C(=O)NO)cc3C2)c1` (centres unmarked) [Compound I-119, N-hydroxy-7-(3-methoxyphenyl)-5,6,7,8-tetrahydronaphthalene-2-carboxamide] here?
A: The inhibition at 0.412 µM was 74%.

Q: With `Cc1ccc(-c2cc(C(=O)NC3CCCc4cc(C(=O)NO)ccc43)[nH]n2)cc1` (centres unmarked) [Compound I-35, N-{6-[(hydroxyamino)carbonyl]-1,2,3,4-tetrahydronaphthalen-1-yl}-3-(4-methylphenyl)-1H-pyrazole-5-carboxamide] as the compound, how does the inhibition at 0.412 µM read?
A: Its inhibition at 0.412 µM is 74%.

Q: How did the inhibition at 0.412 µM turn out when `O=C(NO)c1ccc2c(c1)C1CCC2N1C(=O)c1ccc(Cl)cc1` (centres unmarked) [Compound I-197, 9-(4-chlorobenzoyl)-N-hydroxy-1,2,3,4-tetrahydro-1,4-epiminonaphthalene-6-carboxamide] was run?
A: The inhibition at 0.412 µM was 55%.

Q: How did the inhibition at 0.412 µM turn out when `CC(C)(C)c1ccc(C(=O)N2C3CCC2c2cc(C(=O)NO)ccc23)cc1` (centres unmarked) [Compound I-200, 9-(4-tert-butylbenzoyl)-N-hydroxy-1,2,3,4-tetrahydro-1,4-epiminonaphthalene-6-carboxamide] was run?
A: The inhibition at 0.412 µM was 67%.

Q: `CN(C)Cc1cc(C(=O)NC2CCc3ccc(C(=O)NO)cc3C2)cc(C(F)(F)F)c1` (centres unmarked) [Compound I-78, 7-{[3-[(dimethylamino)methyl]-5-(trifluoromethyl)benzoyl]amino}-N-hydroxy-5,6,7,8-tetrahydronaphthalene-2-carboxamide] was tested. Which inhibition at 0.412 µM did it give?
A: Its inhibition at 0.412 µM is 88%.

Q: With `O=C(NO)c1ccc2c(c1)CCCC2NC(=O)C(C1CCCCC1)C1CCCCC1` (centres unmarked) [Compound I-13, 5-[(dicyclohexylacetyl)amino]-N-hydroxy-5,6,7,8-tetrahydronaphthalene-2-carboxamide] as the compound, how does the inhibition at 0.412 µM read?
A: The inhibition at 0.412 µM was 10%.

Q: How did the inhibition at 0.412 µM turn out when `COc1ccc(C(C(=O)NC2CCCc3cc(C(=O)NO)ccc32)c2ccccc2)cc1` (centres unmarked) [Compound I-41, N-hydroxy-5-{[(4-methoxyphenyl)(phenyl)acetyl]amino}-5,6,7,8-tetrahydronaphthalene-2-carboxamide] was run?
A: Its inhibition at 0.412 µM is 23%.

Q: `CC(=O)Nc1cccc(C2CCc3ccc(C(=O)NO)cc3C2)c1` (centres unmarked) [Compound I-92, 7-[3-(acetylamino)phenyl]-N-hydroxy-5,6,7,8-tetrahydronaphthalene-2-carboxamide] was tested. Which inhibition at 0.412 µM did it give?
A: The inhibition at 0.412 µM was 92%.
